Test results: PMC12171682, “Saarvienin A—A Novel Glycopeptide with Potent Activity against Drug‐Resistant Bacteria” (Angewandte Chemie (International Ed. in English), 2025)
Values after ≈ are worked out from the molar mass of the structure shown. Where two headings read alike, the source gives them in different places.

What was measured:
E. faecalis ATCC 29212 [1] = test: microbe, parasite or virus in culture; details: Enterococcus faecalis, ATCC29212, 24 h, read-out: MIC, E. faecalis ATCC29212
[2] = tested on: vancomycin‐resistant E. faecium clinical isolates with reduced susceptibility to daptomycin (n = 26); test: microbe, parasite or virus in culture; details: Enterococcus faecium; for MIC: 24 h
E. faecalis ATCC 29212 [3] = details: reference strain in Table S5; broth microdilution, MHB II, 37 °C, 24 h; daptomycin with 50 µg/mL Ca2+; mean of two independent experiments
[4] = tested on: vancomycin‐resistant E. faecium clinical isolates with reduced susceptibility to daptomycin (n = 26)

Q: What does the source list for CC1(C)S[C@@H]2[C@H](NC(=O)[C@H](N)c3ccccc3)C(=O)N2[C@H]1C(=O)O [Ampicillin]?
A: MIC (E. faecalis ATCC 29212 [1]): 2 µg/mL (≈ 5.72 µM); MIC ([2]; read-out: MIC, Enterococcus faecium isolate 1): > 64 µg/mL; MIC ([2]; read-out: MIC, Enterococcus faecium isolate 2): > 64 µg/mL; MIC ([2]; read-out: MIC, Enterococcus faecium isolate 3): 64 µg/mL (≈ 183 µM); MIC ([2]; read-out: MIC, Enterococcus faecium isolate 4): > 64 µg/mL; MIC ([2]; read-out: MIC, Enterococcus faecium isolate 5): > 64 µg/mL; MIC ([2]; read-out: MIC, Enterococcus faecium isolate 6): > 64 µg/mL; MIC ([2]; read-out: MIC, Enterococcus faecium isolate 7): > 64 µg/mL; MIC ([2]; read-out: MIC, Enterococcus faecium isolate 8): > 64 µg/mL; MIC ([2]; read-out: MIC, Enterococcus faecium isolate 9): > 64 µg/mL; MIC ([2]; read-out: MIC, Enterococcus faecium isolate 10): > 64 µg/mL; MIC ([2]; read-out: MIC, Enterococcus faecium isolate 11): > 64 µg/mL; MIC ([2]; read-out: MIC, Enterococcus faecium isolate 12): > 64 µg/mL; MIC ([2]; read-out: MIC, Enterococcus faecium isolate 13): > 64 µg/mL; MIC ([2]; read-out: MIC, Enterococcus faecium isolate 14): > 64 µg/mL; MIC ([2]; read-out: MIC, Enterococcus faecium isolate 15): > 64 µg/mL; MIC ([2]; read-out: MIC, Enterococcus faecium isolate 16): > 64 µg/mL; MIC ([2]; read-out: MIC, Enterococcus faecium isolate 17): > 64 µg/mL; MIC ([2]; read-out: MIC, Enterococcus faecium isolate 18): > 64 µg/mL; MIC ([2]; read-out: MIC, Enterococcus faecium isolate 19): > 64 µg/mL; MIC ([2]; read-out: MIC, Enterococcus faecium isolate 20): > 64 µg/mL; MIC ([2]; read-out: MIC, Enterococcus faecium isolate 21): > 64 µg/mL; MIC ([2]; read-out: MIC, Enterococcus faecium isolate 22): > 64 µg/mL; MIC ([2]; read-out: MIC, Enterococcus faecium isolate 23): > 64 µg/mL; MIC ([2]; read-out: MIC, Enterococcus faecium isolate 24): > 64 µg/mL; MIC ([2]; read-out: MIC, Enterococcus faecium isolate 25): > 64 µg/mL; MIC ([2]; read-out: MIC, Enterococcus faecium isolate 26): > 64 µg/mL; MIC50 ([2]; VRE): > 64 µg/mL; MIC90 ([2]; VRE): > 64 µg/mL

Q: Which MIC (E. faecalis ATCC 29212 [1]) does the source give for O=C(O)c1cn(C2CC2)c2cc(N3CCNCC3)c(F)cc2c1=O [Ciprofloxacin] here?
A: 2 µg/mL (≈ 6.04 µM)

Q: For CCCCCCCCCC(=O)N[C@@H](Cc1c[nH]c2ccccc12)C(=O)N[C@H](CC(N)=O)C(=O)N[C@@H](CC(=O)O)C(=O)N[C@@H]1C(=O)NCC(=O)N[C@@H](CCCN)C(=O)N[C@@H](CC(=O)O)C(=O)N[C@H](C)C(=O)N[C@@H](CC(=O)O)C(=O)NCC(=O)N[C@H](CO)C(=O)N[C@@H]([C@H](C)CC(=O)O)C(=O)N[C@@H](CC(=O)c2ccccc2N)C(=O)O[C@@H]1C [Daptomycin, daptomycin], which “MIC, E. faecalis ATCC29212” value (E. faecalis ATCC 29212 [3]) is on record?
A: 4 µg/mL (≈ 2.47 µM)

Q: And the MIC50 ([4]; 24 h)?
A: 8 µg/mL (≈ 4.94 µM)

Q: What about the MIC90 ([4]; 24 h) of the same compound?
A: 8 µg/mL (≈ 4.94 µM)

Q: What about the “MIC Range” value ([4]; 24 h) of the same compound?
A: 8 to 16 µg/mL

Q: What about the “MIC, Enterococcus faecium isolate 1” value ([4]; 24 h) of the same compound?
A: 8 µg/mL (≈ 4.94 µM)

Q: And the “MIC, Enterococcus faecium isolate 2” value ([4]; 24 h)?
A: 8 µg/mL (≈ 4.94 µM)

Q: And the “MIC, Enterococcus faecium isolate 3” value ([4]; 24 h)?
A: 8 µg/mL (≈ 4.94 µM)

Q: What about the “MIC, Enterococcus faecium isolate 4” value ([4]; 24 h) of the same compound?
A: 8 µg/mL (≈ 4.94 µM)

Q: What about the “MIC, Enterococcus faecium isolate 5” value ([4]; 24 h) of the same compound?
A: 8 µg/mL (≈ 4.94 µM)

Q: And the “MIC, Enterococcus faecium isolate 6” value ([4]; 24 h)?
A: 8 µg/mL (≈ 4.94 µM)

Q: What about the “MIC, Enterococcus faecium isolate 7” value ([4]; 24 h) of the same compound?
A: 8 µg/mL (≈ 4.94 µM)

Q: And the “MIC, Enterococcus faecium isolate 8” value ([4]; 24 h)?
A: 8 µg/mL (≈ 4.94 µM)

Q: And the “MIC, Enterococcus faecium isolate 9” value ([4]; 24 h)?
A: 8 µg/mL (≈ 4.94 µM)

Q: What about the “MIC, Enterococcus faecium isolate 10” value ([4]; 24 h) of the same compound?
A: 8 µg/mL (≈ 4.94 µM)

Q: What about the “MIC, Enterococcus faecium isolate 11” value ([4]; 24 h) of the same compound?
A: 8 µg/mL (≈ 4.94 µM)

Q: And the “MIC, Enterococcus faecium isolate 12” value ([4]; 24 h)?
A: 8 µg/mL (≈ 4.94 µM)

Q: What about the “MIC, Enterococcus faecium isolate 13” value ([4]; 24 h) of the same compound?
A: 8 µg/mL (≈ 4.94 µM)

Q: And the “MIC, Enterococcus faecium isolate 14” value ([4]; 24 h)?
A: 8 µg/mL (≈ 4.94 µM)

Q: What about the “MIC, Enterococcus faecium isolate 15” value ([4]; 24 h) of the same compound?
A: 8 µg/mL (≈ 4.94 µM)

Q: What about the “MIC, Enterococcus faecium isolate 16” value ([4]; 24 h) of the same compound?
A: 8 µg/mL (≈ 4.94 µM)

Q: What about the “MIC, Enterococcus faecium isolate 17” value ([4]; 24 h) of the same compound?
A: 8 µg/mL (≈ 4.94 µM)

Q: What about the “MIC, Enterococcus faecium isolate 18” value ([4]; 24 h) of the same compound?
A: 8 µg/mL (≈ 4.94 µM)

Q: And the “MIC, Enterococcus faecium isolate 19” value ([4]; 24 h)?
A: 8 µg/mL (≈ 4.94 µM)

Q: What about the “MIC, Enterococcus faecium isolate 20” value ([4]; 24 h) of the same compound?
A: 8 µg/mL (≈ 4.94 µM)

Q: And the “MIC, Enterococcus faecium isolate 21” value ([4]; 24 h)?
A: 8 µg/mL (≈ 4.94 µM)

Q: What about the “MIC, Enterococcus faecium isolate 22” value ([4]; 24 h) of the same compound?
A: 8 µg/mL (≈ 4.94 µM)

Q: And the “MIC, Enterococcus faecium isolate 23” value ([4]; 24 h)?
A: 8 µg/mL (≈ 4.94 µM)

Q: And the “MIC, Enterococcus faecium isolate 24” value ([4]; 24 h)?
A: 16 µg/mL (≈ 9.87 µM)

Q: What about the “MIC, Enterococcus faecium isolate 25” value ([4]; 24 h) of the same compound?
A: 16 µg/mL (≈ 9.87 µM)

Q: And the “MIC, Enterococcus faecium isolate 26” value ([4]; 24 h)?
A: 8 µg/mL (≈ 4.94 µM)

Q: What does the source list for teicoplanin?
A: MIC, E. faecalis ATCC29212 (E. faecalis ATCC 29212 [3]): 0.5 µg/mL; MIC50 ([4]; 26 VRE E. faecium clinical isolates, broth microdilution, MHB II, daptomycin with 50 µg/mL Ca2+, mean of two independent experiments): 64 µg/mL; MIC, Enterococcus faecium isolate 1 ([4]; clinical isolate 1, broth microdilution, MHB II, 37 °C, 24 h, daptomycin with 50 µg/mL Ca2+, mean of two independent experiments): 64 µg/mL; MIC, Enterococcus faecium isolate 2 ([4]; clinical isolate 2, broth microdilution, MHB II, 37 °C, 24 h, daptomycin with 50 µg/mL Ca2+, mean of two independent experiments): 32 µg/mL; MIC, Enterococcus faecium isolate 3 ([4]; clinical isolate 3, broth microdilution, MHB II, 37 °C, 24 h, daptomycin with 50 µg/mL Ca2+, mean of two independent experiments): 2 µg/mL; MIC, Enterococcus faecium isolate 4 ([4]; clinical isolate 4, broth microdilution, MHB II, 37 °C, 24 h, daptomycin with 50 µg/mL Ca2+, mean of two independent experiments): 2 µg/mL; MIC, Enterococcus faecium isolate 5 ([4]; clinical isolate 5, broth microdilution, MHB II, 37 °C, 24 h, daptomycin with 50 µg/mL Ca2+, mean of two independent experiments): > 64 µg/mL; MIC, Enterococcus faecium isolate 6 ([4]; clinical isolate 6, broth microdilution, MHB II, 37 °C, 24 h, daptomycin with 50 µg/mL Ca2+, mean of two independent experiments): 64 µg/mL; MIC, Enterococcus faecium isolate 7 ([4]; clinical isolate 7, broth microdilution, MHB II, 37 °C, 24 h, daptomycin with 50 µg/mL Ca2+, mean of two independent experiments): 32 µg/mL; MIC, Enterococcus faecium isolate 8 ([4]; clinical isolate 8, broth microdilution, MHB II, 37 °C, 24 h, daptomycin with 50 µg/mL Ca2+, mean of two independent experiments): 64 µg/mL; MIC, Enterococcus faecium isolate 9 ([4]; clinical isolate 9, broth microdilution, MHB II, 37 °C, 24 h, daptomycin with 50 µg/mL Ca2+, mean of two independent experiments): > 64 µg/mL; MIC, Enterococcus faecium isolate 10 ([4]; clinical isolate 10, broth microdilution, MHB II, 37 °C, 24 h, daptomycin with 50 µg/mL Ca2+, mean of two independent experiments): > 64 µg/mL; MIC, Enterococcus faecium isolate 11 ([4]; clinical isolate 11, broth microdilution, MHB II, 37 °C, 24 h, daptomycin with 50 µg/mL Ca2+, mean of two independent experiments): 32 µg/mL; MIC, Enterococcus faecium isolate 12 ([4]; clinical isolate 12, broth microdilution, MHB II, 37 °C, 24 h, daptomycin with 50 µg/mL Ca2+, mean of two independent experiments): 64 µg/mL; MIC, Enterococcus faecium isolate 13 ([4]; clinical isolate 13, broth microdilution, MHB II, 37 °C, 24 h, daptomycin with 50 µg/mL Ca2+, mean of two independent experiments): 32 µg/mL; MIC, Enterococcus faecium isolate 14 ([4]; clinical isolate 14, broth microdilution, MHB II, 37 °C, 24 h, daptomycin with 50 µg/mL Ca2+, mean of two independent experiments): 32 µg/mL; MIC, Enterococcus faecium isolate 15 ([4]; clinical isolate 15, broth microdilution, MHB II, 37 °C, 24 h, daptomycin with 50 µg/mL Ca2+, mean of two independent experiments): 64 µg/mL; MIC, Enterococcus faecium isolate 16 ([4]; clinical isolate 16, broth microdilution, MHB II, 37 °C, 24 h, daptomycin with 50 µg/mL Ca2+, mean of two independent experiments): 32 µg/mL; MIC, Enterococcus faecium isolate 17 ([4]; clinical isolate 17, broth microdilution, MHB II, 37 °C, 24 h, daptomycin with 50 µg/mL Ca2+, mean of two independent experiments): 64 µg/mL; MIC, Enterococcus faecium isolate 18 ([4]; clinical isolate 18, broth microdilution, MHB II, 37 °C, 24 h, daptomycin with 50 µg/mL Ca2+, mean of two independent experiments): 32 µg/mL; MIC, Enterococcus faecium isolate 19 ([4]; clinical isolate 19, broth microdilution, MHB II, 37 °C, 24 h, daptomycin with 50 µg/mL Ca2+, mean of two independent experiments): 64 µg/mL; MIC, Enterococcus faecium isolate 20 ([4]; clinical isolate 20, broth microdilution, MHB II, 37 °C, 24 h, daptomycin with 50 µg/mL Ca2+, mean of two independent experiments): 64 µg/mL; MIC, Enterococcus faecium isolate 21 ([4]; clinical isolate 21, broth microdilution, MHB II, 37 °C, 24 h, daptomycin with 50 µg/mL Ca2+, mean of two independent experiments): > 64 µg/mL; MIC, Enterococcus faecium isolate 22 ([4]; clinical isolate 22, broth microdilution, MHB II, 37 °C, 24 h, daptomycin with 50 µg/mL Ca2+, mean of two independent experiments): 64 µg/mL; MIC, Enterococcus faecium isolate 23 ([4]; clinical isolate 23, broth microdilution, MHB II, 37 °C, 24 h, daptomycin with 50 µg/mL Ca2+, mean of two independent experiments): > 64 µg/mL; MIC, Enterococcus faecium isolate 24 ([4]; clinical isolate 24, broth microdilution, MHB II, 37 °C, 24 h, daptomycin with 50 µg/mL Ca2+, mean of two independent experiments): > 64 µg/mL; MIC, Enterococcus faecium isolate 25 ([4]; clinical isolate 25, broth microdilution, MHB II, 37 °C, 24 h, daptomycin with 50 µg/mL Ca2+, mean of two independent experiments): > 64 µg/mL; MIC, Enterococcus faecium isolate 26 ([4]; clinical isolate 26, broth microdilution, MHB II, 37 °C, 24 h, daptomycin with 50 µg/mL Ca2+, mean of two independent experiments): > 64 µg/mL
